Experimental data reported in PubChem BioAssay (NCI).
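Step 1: Grow cells in 96-well plates. Step 2: Expose to compound for 48 hours at 5 concentrations. Step 3: Interpolate endpoints linearly; if unreached, use highest concentration. TGI: concentration producing complete growth inhibition.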

What was measured:
Experiment in all cases: NCI tumour cell line growth inhibition, 48 h
[1] = tested on: SNB-75 CNS
[2] = tested on: UACC-257 melanoma
[3] = tested on: LXFL 529 NSCLC
[4] = tested on: OVCAR-3 ovarian
[5] = tested on: HOP-62 NSCLC
[6] = tested on: CAKI-1 renal
[7] = tested on: DMS 114 small cell lung
[8] = tested on: MALME-3M melanoma
[9] = tested on: IGROV1 ovarian
[10] = tested on: A549 NSCLC
[11] = tested on: SW-620 colon
[12] = tested on: KM12 colon
[13] = tested on: COLO 205 colon
[14] = tested on: KM20L2 colon
[15] = tested on: M19-MEL melanoma
[16] = tested on: DLD-1 colon
[17] = tested on: SK-MEL-2 melanoma
[18] = tested on: SF-268 CNS
[19] = tested on: HCT-116 colon
[20] = tested on: NCI-H23 lung
[21] = tested on: NCI-H460 lung
[22] = tested on: TK-10 renal
[23] = tested on: SF-539 CNS
[24] = tested on: HCC-2998 colon
[25] = tested on: EKVX NSCLC
[26] = tested on: U251 CNS
[27] = tested on: UO-31 renal
[28] = tested on: DMS 273 small cell lung
[29] = tested on: NCI-H226 lung
[30] = tested on: XF 498 CNS
[31] = tested on: OVCAR-5 ovarian
[32] = tested on: M14 melanoma
[33] = tested on: ACHN renal
[34] = tested on: OVCAR-4 ovarian
[35] = tested on: OVCAR-8 ovarian
[36] = tested on: A498 renal
[37] = tested on: HOP-18 NSCLC
[38] = tested on: NCI-H522 lung
[39] = tested on: SK-MEL-5 melanoma
[40] = tested on: SF-295 CNS
[41] = tested on: SNB-78 CNS
[42] = tested on: HT29 colon
[43] = tested on: HOP-92 NSCLC
[44] = tested on: HCT-15 colon
[45] = tested on: SK-MEL-28 melanoma
[46] = tested on: UACC-62 melanoma
[47] = tested on: RXF 393 renal
[48] = tested on: 786-0 renal
[49] = tested on: MOLT-4 leukemia
[50] = tested on: SNB-19 CNS
[51] = tested on: SN12C renal
[52] = tested on: RXF-631 renal
[53] = tested on: NCI/ADR-RES ovarian
[54] = tested on: MCF7 breast
[55] = tested on: SK-OV-3 ovarian
[56] = tested on: P388 leukemia
[57] = tested on: P388/ADR leukemia
[58] = tested on: HL-60(TB) leukemia
[59] = tested on: RPMI-8226 leukemia
[60] = tested on: LOX IMVI melanoma
[61] = tested on: SN12K1 renal
[62] = tested on: CCRF-CEM leukemia
[63] = tested on: K-562 leukemia

Structure (SMILES): O=C1/C(=C/c2ccc3c(c2)OCO3)SC2C=Nc3ccccc3N12 (stereo not drawn)
- TGI [1]: > 100 µM
- TGI [2]: > 100 µM
- TGI [3]: > 100 µM
- TGI [4]: > 100 µM
- TGI [5]: > 100 µM
- TGI [6]: > 100 µM
- TGI [7]: > 100 µM
- TGI [8]: > 100 µM
- TGI [9]: > 100 µM
- TGI [10]: > 100 µM
- TGI [11]: > 100 µM
- TGI [12]: > 100 µM
- TGI [13]: > 100 µM
- TGI [14]: > 100 µM
- TGI [15]: > 100 µM
- TGI [16]: > 100 µM
- TGI [17]: > 100 µM
- TGI [18]: > 100 µM
- TGI [19]: > 100 µM
- TGI [20]: > 100 µM
- TGI [21]: > 100 µM
- TGI [22]: > 100 µM
- TGI [23]: > 100 µM
- TGI [24]: > 100 µM
- TGI [25]: > 100 µM
- TGI [26]: > 100 µM
- TGI [27]: > 100 µM
- TGI [28]: > 100 µM
- TGI [29]: > 100 µM
- TGI [30]: > 100 µM
- TGI [31]: > 100 µM
- TGI [32]: > 100 µM
- TGI [33]: > 100 µM
- TGI [34]: > 100 µM
- TGI [35]: > 100 µM
- TGI [36]: > 100 µM
- TGI [37]: > 100 µM
- TGI [38]: > 100 µM
- TGI [39]: > 100 µM
- TGI [40]: > 100 µM
- TGI [41]: > 100 µM
- TGI [42]: > 100 µM
- TGI [43]: > 100 µM
- TGI [44]: > 100 µM
- TGI [45]: > 100 µM
- TGI [46]: > 100 µM
- TGI [47]: > 100 µM
- TGI [48]: > 100 µM
- TGI [49]: > 100 µM
- TGI [50]: > 100 µM
- TGI [51]: > 100 µM
- TGI [52]: > 100 µM

Structure (SMILES): O=C(O)CCC(NC(=O)c1ccc(Nc2nc3cc(C(F)(F)F)ccc3nc2-c2ccccc2)cc1)C(=O)O (stereo not drawn)
- TGI [1]: > 100 µM
- TGI [2]: > 100 µM
- TGI [4]: > 100 µM
- TGI [5]: > 100 µM
- TGI [53]: > 100 µM
- TGI [7]: > 100 µM
- TGI [8]: > 100 µM
- TGI [9]: > 100 µM
- TGI [10]: > 100 µM
- TGI [11]: > 100 µM
- TGI [54]: > 100 µM
- TGI [12]: > 100 µM
- TGI [13]: > 100 µM
- TGI [14]: 53.3 µM
- TGI [15]: > 100 µM
- TGI [16]: > 100 µM
- TGI [17]: > 100 µM
- TGI [18]: > 100 µM
- TGI [19]: > 100 µM
- TGI [20]: > 100 µM
- TGI [21]: > 100 µM
- TGI [23]: > 100 µM
- TGI [55]: > 100 µM
- TGI [24]: > 100 µM
- TGI [25]: > 100 µM
- TGI [26]: > 100 µM
- TGI [27]: > 100 µM
- TGI [28]: 46.6 µM
- TGI [29]: > 100 µM
- TGI [30]: > 100 µM
- TGI [31]: > 100 µM
- TGI [56]: > 100 µM
- TGI [57]: > 100 µM
- TGI [34]: > 100 µM
- TGI [35]: > 100 µM
- TGI [36]: > 100 µM
- TGI [37]: > 100 µM
- TGI [38]: > 91.6 µM
- TGI [58]: > 100 µM
- TGI [39]: > 100 µM
- TGI [59]: > 100 µM
- TGI [40]: > 100 µM
- TGI [60]: > 100 µM
- TGI [41]: > 100 µM
- TGI [42]: > 69.8 µM
- TGI [61]: > 100 µM
- TGI [43]: > 100 µM
- TGI [44]: > 100 µM
- TGI [45]: > 100 µM
- TGI [46]: > 100 µM
- TGI [47]: 94.8 µM
- TGI [62]: > 100 µM
- TGI [49]: > 100 µM
- TGI [50]: > 100 µM
- TGI [63]: > 100 µM
- TGI [51]: > 100 µM
